The supplement of paper PMC6045584
± gives the standard deviation of the averaged measurements.

Assays:
[1] = compound: CN1CCN(c2nc(C3=C(c4c[nH]c5ccccc45)C(=O)NC3=O)c3ccccc3n2)CC1 [SOTRASTAURIN/AEB071]; assay: surviving fraction relative to DMSO-only wells; higher = less growth inhibition; settings: exposure time: 5 days
Method in brief: (§1)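 Lines were retained only if, across three screens, replicate Pearson r was >0.7 and median Z' was >0.3. Viability was measured as CellTiter-Glo luminescence and reported as surviving fraction relative to the median of DMSO-only wells. Readings followed 10 minutes at room temperature, after log-phase tumour cells seeded at 250–500 per well in 384-well plates had been exposed, from 24 hours after seeding, continuously for five days to inhibitors at 0.5, 1, 5, 10, 50, 100, 500 and 1000 nM.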

[2] = compound: NS(=O)(=O)OC[C@@H]1C[C@@H](n2ccc3c(N[C@H]4CCc5ccccc54)ncnc32)C[C@@H]1O [MLN-4924]; assay: as above; settings: exposure time: 5 days
Method in brief: as §1

Test System | surviving fraction ([1]; 0.5 nM) | surviving fraction ([1]; 1 nM) | surviving fraction ([1]; 5 nM) | surviving fraction ([1]; 10 nM) | surviving fraction ([1]; 50 nM) | surviving fraction ([1]; 100 nM) | surviving fraction ([1]; 500 nM) | surviving fraction ([1]; 1000 nM) | surviving fraction ([2]; 0.5 nM) | surviving fraction ([2]; 1 nM) | surviving fraction ([2]; 5 nM) | surviving fraction ([2]; 10 nM) | surviving fraction ([2]; 50 nM) | surviving fraction ([2]; 100 nM) | surviving fraction ([2]; 500 nM) | surviving fraction ([2]; 1000 nM)
G292 BONE | 1.04 ± 0.016 | 1.002 ± 0.0081 | 1.04 ± 0.057 | 1.01 ± 0.025 | 1.02 ± 0.072 | 0.987 ± 0.077 | 0.969 ± 0.024 | 0.982 ± 0.046 | 1.02 ± 0.031 | 1 ± 0.048 | 1.04 ± 0.017 | 1.03 ± 0.054 | 0.909 ± 0.049 | 0.623 ± 0.068 | 0.295 ± 0.011 | 0.266 ± 0.019
HCC38 BREAST | 0.974 ± 0.11 | 0.913 ± 0.14 | 1.02 ± 0.16 | 1.16 ± 0.23 | 0.851 ± 0.19 | 0.874 ± 0.042 | 0.759 ± 0.11 | 0.805 ± 0.12 | 1.35 ± 0.069 | 1.48 ± 0.14 | 1.02 ± 0.14 | 1.22 ± 0.18 | 0.624 ± 0.064 | 0.269 ± 0.025 | 0.0757 ± 0.0075 | 0.0803 ± 0.013
HCC70 BREAST | 1.17 ± 0.049 | 1.05 ± 0.073 | 1.1 ± 0.046 | 1.14 ± 0.02 | 1.15 ± 0.024 | 1.18 ± 0.038 | 1.25 ± 0.029 | 1.22 ± 0.06 | 1.06 ± 0.14 | 1.09 ± 0.06 | 1.07 ± 0.066 | 0.96 ± 0.071 | 0.582 ± 0.041 | 0.41 ± 0.029 | 0.14 ± 0.037 | 0.103 ± 0.014
HMLE3 BREAST | 1.11 ± 0.098 | 1.1 ± 0.057 | 1.15 ± 0.034 | 1.13 ± 0.061 | 1.12 ± 0.087 | 1.02 ± 0.078 | 0.961 ± 0.12 | 0.831 ± 0.084 | 1.04 ± 0.046 | 1.08 ± 0.031 | 1.07 ± 0.016 | 1.25 ± 0.019 | 1.07 ± 0.016 | 0.698 ± 0.024 | 0.175 ± 0.017 | 0.114 ± 0.025
HMT3552 BREAST | 0.982 ± 0.13 | 0.975 ± 0.012 | 0.984 ± 0.037 | 1.04 ± 0.04 | 1.03 ± 0.059 | 1.04 ± 0.013 | 1.3 ± 0.11 | 1.24 ± 0.06 | 1.04 ± 0.012 | 1.11 ± 0.054 | 1.11 ± 0.062 | 1.11 ± 0.032 | 0.458 ± 0.03 | 0.295 ± 0.021 | 0.154 ± 0.008 | 0.108 ± 0.0046
HS578T BREAST | 0.899 ± 0.11 | 0.861 ± 0.083 | 0.977 ± 0.27 | 0.954 ± 0.11 | 1.06 ± 0.16 | 0.916 ± 0.057 | 0.877 ± 0.064 | 1.01 ± 0.17 | 0.822 ± 0.14 | 0.96 ± 0.14 | 0.898 ± 0.05 | 0.957 ± 0.11 | 0.63 ± 0.021 | 0.494 ± 0.037 | 0.342 ± 0.04 | 0.326 ± 0.057
